System: methane production in human stool
Assay: Methane production in human stool homogenates of IBS-C patients (head gas analysed by gas chromatography)
Format: cell-based
Conditions: stool homogenates of methane-producing human IBS-C patients, anaerobic chamber; 0.5, 1, 5 and 10 mg of statin per g of stool; head gas at baseline, 90 minute intervals for 3 hours and overnight (~720 min); FIG. 4
Protocol: Fresh stool samples were provided by two methane-producing human IBS-C patients (breath methane>10 ppm) who had provided an informed consent. Different concentrations of stool from each patient were homogenized in deoxygenated PBS (3 ml PBS/2 g stool) inside an anaerobic incubation chamber. Plead gas was extracted through a stopcock at various timepoints ([…], and following overnight incubation) and methane levels in the head gas at each timepoint were analyzed by gas chromatography using a Quintron SC gas chromatograph (Quintron Instrument Company, Milwaukee, Wis.).
The effects of lovastatin lactone, lovastatin ß-hydroxyacid and lovastatin diol on methane production were evaluated by incubating various concentrations of these molecules (0 mg, 0.5 mg, 1 mg, 5 mg and 10 mg of statin per g of human stool) with human stool homogenates in an anaerobic chamber as described above. Plead gas samples were drawn from each flask for methane analysis at baseline and at 90 minute intervals for 3 hours, followed by a final sample after overnight incubation (˜720 min).

C[C@H]1C=C2C=C[C@H](C)[C@H](CCC3C[C@@H](O)CC(=O)O3)[C@H]2[C@@H](O)C1 (stereo partly drawn) [lovastatin diol lactone]
inhibition of methane production in human stool: effective inhibitors of methane production

CC[C@H](C)C(=O)O[C@H]1C[C@@H](C)C=C2C=C[C@H](C)[C@H](CC[C@@H](O)C[C@@H](O)CC(=O)O)[C@H]21 [lovastatin R-hydroxyacid, lovastatin ß-hydroxyacid]
inhibition of methane production in human stool: ineffective as an inhibitor of methane production

CC[C@H](C)C(=O)O[C@H]1C[C@@H](C)C=C2C=C[C@H](C)[C@H](CC[C@@H]3C[C@@H](O)CC(=O)O3)[C@H]21 [Lovastatin lactone, lovastatin lactone]
inhibition of methane production in human stool: effective inhibitors of methane production

From patent publication US11590102B2, “Anti-methanogenic lovastatin analogs or derivatives and uses thereof” (CEDARS-SINAI MEDICAL CENTER, priority 2015, dated 2023)
